Measurements reported in patent US9856220B2 (AbbVie Deutschland GmbH & Co. KG, priority 2011, dated 2018).

Assays:
[1] = Determination of the microsomal half-life / microsomal clearance, rat liver microsomes; format: in vitro ADME; details: 0.5 μM test substance, 0.25 mg of microsomal protein/ml, pH 7.4, 37° C.
Procedure: (§1) b) Determination of the Microsomal Half-Life:
(§2) The metabolic stability of the compounds of the invention was determined in the following assay.
(§3) The test substances were incubated in a concentration of 0.5 μM as follows:
(§4) 0.5 μM test substance are preincubated together with liver microsomes from different species (from rat, human or other species) (0.25 mg of microsomal protein/ml) in 0.05 M potassium phosphate buffer of pH 7.4 in microtiter plates at 37° C. for 5 min. The reaction is started by adding NADPH (1 mg/mL). After 0, 5, 10, 15, 20 and 30 min, 50 μl aliquots are removed, and the reaction is immediately stopped and cooled with the same volume of acetonitrile. The samples are frozen until analyzed. The remaining concentration of undegraded test substance is determined by MSMS. The half-life (T½) is determined from the gradient of the signal of test substance/unit time plot, it being possible to calculate the half-life of the test substance, assuming first order kinetics, from the decrease in the concentration of the compound with time. The microsomal clearance (mCl) is calculated from mCl=ln 2/T½/(content of microsomal protein in mg/ml)×1000 [ml/min/mg]

PDE10A = PDE10A (Homo sapiens (Human), UniProt Q9Y233); test: Measurement of PDE activity (recombinant PDE, cAMP HTRF); format: biochemical; details: 20 nM cyclic nucleotide substrate, 60 minutes at 29 C
Sequence of PDE10A (Q9Y233 whole entry, species assumed): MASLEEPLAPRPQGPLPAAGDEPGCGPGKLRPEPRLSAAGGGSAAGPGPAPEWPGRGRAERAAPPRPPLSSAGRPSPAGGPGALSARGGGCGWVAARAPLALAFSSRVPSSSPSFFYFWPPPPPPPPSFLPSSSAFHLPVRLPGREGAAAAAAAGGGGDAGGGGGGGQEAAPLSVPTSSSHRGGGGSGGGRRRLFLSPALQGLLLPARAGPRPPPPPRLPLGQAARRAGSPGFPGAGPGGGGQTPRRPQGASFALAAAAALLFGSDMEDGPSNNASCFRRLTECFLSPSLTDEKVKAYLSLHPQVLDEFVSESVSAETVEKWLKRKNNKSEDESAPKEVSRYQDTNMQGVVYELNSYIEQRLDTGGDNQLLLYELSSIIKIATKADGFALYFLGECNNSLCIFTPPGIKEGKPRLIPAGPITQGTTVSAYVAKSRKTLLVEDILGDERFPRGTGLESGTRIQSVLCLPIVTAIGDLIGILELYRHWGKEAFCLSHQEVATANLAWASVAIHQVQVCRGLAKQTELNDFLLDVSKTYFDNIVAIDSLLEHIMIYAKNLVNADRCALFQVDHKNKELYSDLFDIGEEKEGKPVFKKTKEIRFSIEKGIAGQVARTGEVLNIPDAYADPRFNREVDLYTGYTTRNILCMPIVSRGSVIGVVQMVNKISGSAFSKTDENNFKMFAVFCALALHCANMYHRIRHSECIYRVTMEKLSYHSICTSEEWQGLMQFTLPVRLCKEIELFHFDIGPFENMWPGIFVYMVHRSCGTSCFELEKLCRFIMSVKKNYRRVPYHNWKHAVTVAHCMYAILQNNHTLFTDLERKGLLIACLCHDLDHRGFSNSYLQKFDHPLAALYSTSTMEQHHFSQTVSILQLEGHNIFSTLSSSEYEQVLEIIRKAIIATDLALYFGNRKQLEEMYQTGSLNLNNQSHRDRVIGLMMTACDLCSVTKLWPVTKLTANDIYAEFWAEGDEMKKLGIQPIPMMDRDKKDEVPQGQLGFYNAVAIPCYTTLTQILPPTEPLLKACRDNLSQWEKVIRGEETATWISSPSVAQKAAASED
Summary of the method: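 Recombinant human PDE10A in 20 mM Tris-HCl pH 7.5, 10 mM MgCl2, 0.1% BSA with 20 nM cyclic nucleotide substrate; reaction 60 min at 29 C after compound preincubation with enzyme. Residual cAMP detected by HTRF (cAMP-d2/anti-cAMP cryptate); IC50 from inhibitor concentration versus PDE activity.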

[2] = Determination of the microsomal half-life / microsomal clearance, human liver microsomes; format: in vitro ADME; details: 0.5 μM test substance, 0.25 mg of microsomal protein/ml, pH 7.4, 37° C.
Procedure: as §1, §2, §3, §4

## CCC(CC)n1cc(C(=O)NC2CCc3ncccc32)c2cc(OC)c(OC)cc2c1=O (single isomer, unassigned; (-)) [Example 200, (−)-2-(1-Ethyl-propyl)-6,7-dimethoxy-1-oxo-1,2-dihydro-isoquinoline-4-carboxylic acid (6,7-dihydro-5H-[1]pyrindin-5-yl)-amide]
[1]
  Rat mCl: ++ (<100 μl min^−1 mg^−1)
PDE10A
  IC50: 200 to 500 nM
[2]
  Human mCl: ++ (<100 μl min^−1 mg^−1)

## CCC(CC)n1cc(C(=O)NCc2nc(C)cs2)c2cc(OC)c(OC)cc2c1=O [Example 247, 6,7-Dimethoxy-N-((4-methylthiazol-2-yl)methyl)-1-oxo-2-(pentan-3-yl)-1,2-dihydroisoquinoline-4-carboxamide]
[1]
  Rat mCl: ++ (<100 μl min^−1 mg^−1)
PDE10A
  IC50: 100 to 200 nM
[2]
  Human mCl: + (100-220 μl min^−1 mg^−1)

## CCC(CC)n1cc(C(=O)NCc2ccc(C)o2)c2cc(OC)c(OC)cc2c1=O [Example 251, 6,7-Dimethoxy-N-((5-methylfuran-2-yl)methyl)-1-oxo-2-(pentan-3-yl)-1,2-dihydroisoquinoline-4-carboxamide]
[1]
  Rat mCl: ∘ (>220 μl min^−1 mg^−1)
PDE10A
  IC50: 100 to 200 nM
[2]
  Human mCl: + (100-220 μl min^−1 mg^−1)

## CCn1cc(C(=O)NCc2ccc(C(C)C)cc2)c2cc(OC)c(OC)cc2c1=O [Example 312, 2-Ethyl-N-[(4-isopropylphenyl)methyl]-6,7-dimethoxy-1-oxo-isoquinoline-4-carboxamide]
[1]
  Rat mCl: ++ (<100 μl min^−1 mg^−1)
[2]
  Human mCl: + (100-220 μl min^−1 mg^−1)

## CCC(CC)n1cc(C(=O)NCc2c(C)noc2C)c2cc(OC)c(OC)cc2c1=O [Example 238, N-((3,5-Dimethylisoxazol-4-yl)methyl)-6,7-dimethoxy-1-oxo-2-(pentan-3-yl)-1,2-dihydroisoquinoline-4-carboxamide]
[1]
  Rat mCl: + (100-220 μl min^−1 mg^−1)
PDE10A
  IC50: 100 to 200 nM
[2]
  Human mCl: ++ (<100 μl min^−1 mg^−1)

## CCC(CC)n1cc(C(=O)NCc2nncs2)c2cc(OC)c(OC)cc2c1=O [Example 201, 2-(1-Ethyl-propyl)-6,7-dimethoxy-1-oxo-1,2-dihydro-isoquinoline-4-carboxylic acid ([1,3,4]thiadiazol-2-ylmethyl)-amide]
[1]
  Rat mCl: ++ (<100 μl min^−1 mg^−1)
PDE10A
  IC50: 200 to 500 nM
[2]
  Human mCl: ++ (<100 μl min^−1 mg^−1)

## CCC(C)n1cc(C(=O)NC2CCc3ccccc32)c2cc(OC)c(OC)cc2c1=O (stereo not drawn) [Example 197, 2-sec-Butyl-6,7-dimethoxy-1-oxo-1,2-dihydro-isoquinoline-4-carboxylic acid indan-1-ylamide]
[1]
  Rat mCl: + (100-220 μl min^−1 mg^−1)
PDE10A
  IC50: 100 to 200 nM
[2]
  Human mCl: ∘ (>220 μl min^−1 mg^−1)

## CCC(CC)n1cc(C(=O)NC2CCc3ncccc32)c2cc(OC)c(OC)cc2c1=O (single isomer, unassigned; (+)) [Example 199, (+)-2-(1-Ethyl-propyl)-6,7-dimethoxy-1-oxo-1,2-dihydro-isoquinoline-4-carboxylic acid (6,7-dihydro-5H-[1]pyrindin-5-yl)-amide]
[1]
  Rat mCl: ++ (<100 μl min^−1 mg^−1)
PDE10A
  IC50: 200 to 500 nM
[2]
  Human mCl: ++ (<100 μl min^−1 mg^−1)

## CCn1cc(C(=O)NCc2ccc(C(F)F)cc2)c2cc(OC)c(OC)cc2c1=O [Example 315, N-[[4-(Difluoromethyl)phenyl]methyl]-2-ethyl-6,7-dimethoxy-1-oxo-isoquinoline-4-carboxamide]
[1]
  Rat mCl: ++ (<100 μl min^−1 mg^−1)
[2]
  Human mCl: ++ (<100 μl min^−1 mg^−1)

## CCC(CC)n1cc(C(=O)NCc2ccccc2S(=O)(=O)N2CCOCC2)c2cc(OC)c(OC)cc2c1=O [Example 202, 2-(1-Ethyl-propyl)-6,7-dimethoxy-1-oxo-1,2-dihydro-isoquinoline-4-carboxylic acid 2-(morpholine-4-sulfonyl)-benzylamide]
[1]
  Rat mCl: + (100-220 μl min^−1 mg^−1)
PDE10A
  IC50: < 100 nM
[2]
  Human mCl: ∘ (>220 μl min^−1 mg^−1)

## CCC(CC)n1cc(C(=O)NCc2ncc(C)s2)c2cc(OC)c(OC)cc2c1=O [Example 239, 6,7-Dimethoxy-N-((5-methylthiazol-2-yl)methyl)-1-oxo-2-(pentan-3-yl)-1,2-dihydroisoquinoline-4-carboxamide]
[1]
  Rat mCl: + (100-220 μl min^−1 mg^−1)
PDE10A
  IC50: 100 to 200 nM
[2]
  Human mCl: + (100-220 μl min^−1 mg^−1)

## CCC(CC)n1cc(C(=O)NCc2nccs2)c2cc(OC)c(OC)cc2c1=O [Example 228, 2-(1-Ethyl-propyl)-6,7-dimethoxy-1-oxo-1,2-dihydro-isoquinoline-4-carboxylic acid (thiazol-2-ylmethyl)-amide]
[1]
  Rat mCl: ++ (<100 μl min^−1 mg^−1)
PDE10A
  IC50: 100 to 200 nM
[2]
  Human mCl: ++ (<100 μl min^−1 mg^−1)

## CCC(CC)n1cc(C(=O)NC2CCc3ncccc32)c2cc(OC)c(OC)cc2c1=O (stereo not drawn) [Example 186, 2-(1-Ethyl-propyl)-6,7-dimethoxy-1-oxo-1,2-dihydro-isoquinoline-4-carboxylic acid (6,7-dihydro-5H-[1]pyrindin-5-yl)-amide]
[1]
  Rat mCl: ++ (<100 μl min^−1 mg^−1)
PDE10A
  IC50: 100 to 200 nM
[2]
  Human mCl: ++ (<100 μl min^−1 mg^−1)

## CCn1cc(C(=O)Nc2ccc(N3CCOCC3)cc2)c2cc(OC)c(OC)cc2c1=O [Example 141, 2-Ethyl-6,7-dimethoxy-N-(4-morpholinophenyl)-1-oxo-1,2-dihydroisoquinoline-4-carboxamide]
[1]
  Rat mCl: ++ (<100 μl min^−1 mg^−1)
PDE10A
  IC50: 100 to 200 nM
[2]
  Human mCl: ++ (<100 μl min^−1 mg^−1)

## CCn1cc(C(=O)NC2CCc3sccc32)c2cc(OC)c(OC)cc2c1=O (single isomer, unassigned; (+)) [Example 204, (+)-2-Ethyl-6,7-dimethoxy-1-oxo-1,2-dihydro-isoquinoline-4-carboxylic acid (5,6-dihydro-4H-cyclopenta[b]thiophen-4-yl)-amide]
[1]
  Rat mCl: ++ (<100 μl min^−1 mg^−1)
[2]
  Human mCl: + (100-220 μl min^−1 mg^−1)

## CCC(CC)n1cc(C(=O)NCc2cccnc2)c2cc(OC)c(OC)cc2c1=O [Example 236, 6,7-Dimethoxy-1-oxo-2-(pentan-3-yl)-N-(pyridin-3-ylmethyl)-1,2-dihydroisoquinoline-4-carboxamide]
[1]
  Rat mCl: ++ (<100 μl min^−1 mg^−1)
PDE10A
  IC50: 100 to 200 nM
[2]
  Human mCl: + (100-220 μl min^−1 mg^−1)

## CCn1cc(C(=O)NCc2ccc(C3CC3)cc2)c2cc(OC)c(OC)cc2c1=O [Example 318, N-[(4-Cyclopropylphenyl)methyl]-2-ethyl-6,7-dimethoxy-1-oxo-isoquinoline-4-carboxamide]
[1]
  Rat mCl: ++ (<100 μl min^−1 mg^−1)
PDE10A
  IC50: 200 to 500 nM
[2]
  Human mCl: ++ (<100 μl min^−1 mg^−1)

## COc1cc2c(C(=O)NC3CCc4ccccc43)cn(C3CC3)c(=O)c2cc1OC (stereo not drawn) [Example 196, 2-Cyclopropyl-6,7-dimethoxy-1-oxo-1,2-dihydro-isoquinoline-4-carboxylic acid indan-1-ylamide]
[1]
  Rat mCl: ++ (<100 μl min^−1 mg^−1)
[2]
  Human mCl: ++ (<100 μl min^−1 mg^−1)

## CCn1cc(C(=O)NCc2cc(C)cs2)c2cc(OC)c(OC)cc2c1=O [Example 317, 2-Ethyl-6,7-dimethoxy-N-[(4-methyl-2-thienyl)methyl]-1-oxo-isoquinoline-4-carboxamide]
[1]
  Rat mCl: + (100-220 μl min^−1 mg^−1)
PDE10A
  IC50: 100 to 200 nM
[2]
  Human mCl: ++ (<100 μl min^−1 mg^−1)

## CCn1cc(C(=O)NCc2cscn2)c2cc(OC)c(OC)cc2c1=O [Example 309, 2-Ethyl-6,7-dimethoxy-1-oxo-N-(thiazol-4-ylmethyl)isoquinoline-4-carboxamide]
PDE10A
  IC50: 200 to 500 nM
[2]
  Human mCl: ++ (<100 μl min^−1 mg^−1)

## CCn1cc(C(=O)NCc2ccc(C(F)(F)F)cc2)c2cc(OC)c(OC)cc2c1=O [Example 310, 2-Ethyl-6,7-dimethoxy-1-oxo-N-[[4-(trifluoromethyl)phenyl]-methyl]isoquinoline-4-carboxamide]
[1]
  Rat mCl: ++ (<100 μl min^−1 mg^−1)
[2]
  Human mCl: ++ (<100 μl min^−1 mg^−1)

## CCC(CC)n1cc(C(=O)NCc2cscn2)c2cc(OC)c(OC)cc2c1=O [Example 203, 2-(1-Ethyl-propyl)-6,7-dimethoxy-1-oxo-1,2-dihydro-isoquinoline-4-carboxylic acid (thiazol-4-ylmethyl)-amide]
[1]
  Rat mCl: ++ (<100 μl min^−1 mg^−1)
[2]
  Human mCl: ++ (<100 μl min^−1 mg^−1)

## CCn1cc(C(=O)N[C@@H](C)c2ccc(C)cc2)c2cc(OC)c(OC)cc2c1=O [Example 311, 2-Ethyl-6,7-dimethoxy-1-oxo-N-[(1S)-1-(p-tolyl)ethyl]isoquinoline-4-carboxamide]
PDE10A
  IC50: 200 to 500 nM
[2]
  Human mCl: ++ (<100 μl min^−1 mg^−1)

## CCn1cc(C(=O)N[C@H](C)c2ccc(C)cc2)c2cc(OC)c(OC)cc2c1=O [Example 314, 2-Ethyl-6,7-dimethoxy-1-oxo-N-[(1R)-1-(p-tolyl)ethyl]isoquinoline-4-carboxamide]
[1]
  Rat mCl: ++ (<100 μl min^−1 mg^−1)
[2]
  Human mCl: ++ (<100 μl min^−1 mg^−1)
